Results from patent EP4458916A1, “PHOTOCATALYTICALLY ACTIVE COATING COMPOSITION, METHOD FOR THE PRODUCTION THEREOF AND USE THEREOF” (priority 2023, dated 2024).
Where two headings read alike, the source gives them in different places.

Experiments:
[1] = Immersion test: binding / wash-out of photocatalysts from SolGel coatings (1 h deionised water, UV-VIS signal loss); format: physicochemical; conditions: Rezeptur 5 coating on glass, dye 10 bis 40 mM; 1 h deionised water pH 6 ± 1, 22 ± 3 °C; relative UV-VIS signal loss at absorption maximum
Description: Für alle Untersuchungen wurden nach Beispiel 8 beschichtete Glasträger verwendet.
Um das Auswaschen der verschiedenen Farbstoffe in den Sol-Gel-Beschichtungen zu beurteilen wurde ein Immersionstest in vollentsalztem Wasser mit einem pH-Wert von (6 ± 1) und einer Wassertemperatur von (22 ± 3) °C für eine Stunde durchgeführt. Dazu wurden zunächst Schichten (Rezeptur 5, Beispiel 4, aufgefüllt mit 3,0 mL 2-Propanol; sh. Tabelle 3) mit erhöhter Farbstoffkonzentration (10 bis 40 mM; um die notwendige Auflösung bei der dünnen Schicht zu erreichen) auf Glas-Objektträgern erzeugt. Diese wurden nach dem Ablüften bei Raumtemperatur (30 min) eine Stunde bei 60°C nachgehärtet. Anschließend wurden die Schichten direkt im UV-VIS-Spektrometer vermessen. Die Ausgangswerte (Absorptionsmaximum des jeweiligen Farbstoffs) sollten dabei zwischen 0,05 A.U. und 1,50 A.U. liegen.
Nach einer Stunde in VE-Wasser wurden die Prüfkörper getrocknet und erneut gemessen. Aus den beiden Messungen wurde ein relativer Signalverlust in Prozent bei dem farbstoffspezifischen Absorptionsmaximum bestimmt.
Dieser Immersionstest diente dazu, das Auswaschverhalten verschiedener Farbstoffe aus Beschichtungssystemen zu beurteilen. Weiter soll er dabei helfen, verschiedene Farbstoffklassen oder verschiedene Farbstoffderivate einer Farbstoffklasse bezüglich dieser Charakteristik miteinander zu vergleichen. Die Ergebnisse sind in den folgenden Tabellen sortiert nach Stoffgruppen zusammengefasst: […]

[2] = test system: Bakterien; assay: Room light tests (Raumlichtversuche): antimicrobial efficacy at 10 µW/cm^2 for 24 h; format: cell-based; conditions: Farbstoff 5 mM, coating Rezeptur 3, Beispiel 2a (2,5 eq aqueous boric acid, 50 mM)
Description: Um die antimikrobielle Wirksamkeit in einem realen Szenario abzuschätzen, wurden sogenannte Raumlichtversuche durchgeführt. Dazu wurden die mit Bakterien versetzten Probenträger mit einer, für Innenräume repräsentativen Lichtintensität von 10 µW/cm^2 für einen Zeitraum von 24 h bestrahlt.
Herstellung der Beschichtung erfolgte gemäß Beispiel 2a (2,5 eq wässrige Borsäure, 50 mM), mit Rezeptur 3. Die Ergebnisse sind in der Tabelle 63 zusammengefasst. Tabelle 63: Antimikrobielle Wirksamkeit bei Raumlichtbedingungen

[3] = test system: S.aureus; format: cell-based; conditions: for Log10 Reduktion Probe / Log10 Reduktion Dunkelkontrolle: label = Katalysator of the coating, Rezeptur 2 nach Beispiel 2c on Melamin with S-25a 2 mM
[4] = test system: S. enterica; assay: Bacteria test following modified ISO 22196, photodynamic effect of different photocatalysts in the SolGel coating on S. enterica; format: cell-based; conditions: Rezeptur 4 nach Beispiel 5 on Melamin, 4 h
Source text: (§1) Die Bestimmung der antimikrobiellen Aktivität erfolgte nach einer modifizierten Version der ISO 22196:2011-08 ("Messung von antibakterieller Aktivität auf Kunststoff- und anderen porenfreien Oberflächen", Ausgabedatum: 2011-08).
(§2) Bei der Testdurchführung wurde ein dünner Flüssigkeitsfilm, in dem die Bakterien enthalten sind (1,25 x 10^4 /cm2), direkt auf die Probekörper (2,5 cm x 2,5 cm) aufgebracht. Direkt nach Beimpfung wurden von der Nullprobe die Bakterien von den Probekörperoberflächen mittels Ultraschall und Vortexen abgelöst und die Keimzahl (KBE (engl. CFU), Kolonie-bildende Einheit) bestimmt (t0-Wert). Ein weiterer Satz Nullproben und antimikrobiell ausgestatteter Proben wurden mit Bakterien im Flüssigkeitsfilm bei Raumtemperatur inkubiert. Nach 4 h wurden überlebende Bakterien von den Probekörperoberflächen mittels Ultraschall und Vortexen abgelöst und die Keimzahl bestimmt (t4-Wert).
(§3) Im Unterschied zu der in der ISO 22196:2011-08 beschriebenen Methode wurde das Inokulum nicht mit einer Folie abgedeckt und die Inkubationszeit von 24 auf 4 Stunden reduziert. Weiterhin wurden die Platten der Proben 3 und 4 mit Licht mit einer Intensität von 300 µW/cm2 belichtet.
(§4) Der Bakterientest wurde in Anlehnung an ISO 22196 nach oben beschriebener Methode durchgeführt. Die Ergebnisse sind Tabelle 57a bis 57b dargestellt. Tabelle 57a: Photodynamische Wirkung verschiedener Katalysatoren in der SolGel Beschichtung gegen S.aureus

[5] = test system: I. monocytoqenes; assay: Bacteria test following modified ISO 22196, photodynamic effect of different photocatalysts in the SolGel coating on I. monocytoqenes; format: cell-based; conditions: Rezeptur 4 nach Beispiel 5 on Melamin, 4 h
Source text: as §1, §2, §3, §4

Compound: COCCC1=Cc2nc1ccc1[nH]c(cc1CCOC)c1nc(c(OCCCN)cc3[nH]c2cc3CCOC)C(CCOC)=C1 [S-62]
- Verlust durch Auswaschen [1]: 3%

Compound: COCCC1=Cc2nc1ccc1[nH]c(cc1CCOC)c1nc(c(OCCCO)cc3[nH]c2cc3CCOC)C(CCOC)=C1 [S-61a]
- Verlust durch Auswaschen [1]: 6%

Compound: O=C1C(COc2ccc(CO)cc2)=Cc2cccc3cccc1c23 [S-13]
- log reduction at 5000 µM ([2]; 24 h, dark control, read-out: Log10 Reduktion Dunkelkontrolle): 0.9
- log reduction at 5000 µM ([2]; illuminated 10 µW/cm^2 for 24 h, read-out: Log10 Reduktion 24 h): 1.9

Compound: O=C1C(COc2ccc(O)cc2)=Cc2cccc3cccc1c23 [S-12]
- Verlust durch Auswaschen [1]: 3%

Compound: COCCC1=Cc2nc1ccc1[nH]c(cc1CCOC)c1nc(c(OCCC[Si](OC)(OC)OC)cc3[nH]c2cc3CCOC)C(CCOC)=C1 [S-68]
- Verlust durch Auswaschen [1]: 9%

Compound: O=C1C(C[n+]2ccccc2)=Cc2cccc3cccc1c23 [S-24a]
- Verlust durch Auswaschen [1]: 9%
- Photodynamische Wirkung gegen S.aureus (Log10 Reduktion), compared with the values of S-25a ([3]; Rezeptur 2, Beispiel 2a, filled up with IPA 1:2/1:5/1:8, dye content varied (Tabelle 56)): im Rahmen des Fehlers die gleichen Werte
- S. enterica Log10 Reduktion Probe ([4]; 300 µW/cm2): 4,5±0,8
- S. enterica Log10 Reduktion Dunkelkontrolle ([4]; dark): 0,0±0,2
- I. monocytoqenes Log10 Reduktion Probe ([5]; 300 µW/cm2): 4,5±0,3
- I. monocytoqenes Log10 Reduktion Dunkelkontrolle ([5]; dark): 0,0±0,3

Compound: COCCC1=Cc2nc1ccc1[nH]c(cc1CCOC)c1nc(c(OCCCNC(=O)CCC(N)C(=O)O)cc3[nH]c2cc3CCOC)C(CCOC)=C1 (centres unmarked) [S-75]
- Verlust durch Auswaschen [1]: 9%

Compound: CC(O)C(=O)[O][Al]([O]C(=O)C(C)O)[O]C(=O)C(C)O (centres unmarked) [AL]
- Log10 Reduktion Probe ([3]; 4 h, 300 µW/cm2): 3,3±0,4
- Log10 Reduktion Dunkelkontrolle ([3]; 4 h, dark): 0,2±0,7

Compound: O=P(N1CCCC1)(N1CCCC1)N1CCCC1 [PO]
- Log10 Reduktion Probe ([3]; 4 h, 300 µW/cm2): 3,6±0,3
- Log10 Reduktion Dunkelkontrolle ([3]; 4 h, dark): 0,0±0,1

Compound: COCCC1=Cc2nc1c(O)cc1[nH]c(cc1CCOC)c1nc(c(NC(C)=O)cc3[nH]c2cc3CCOC)C(CCOC)=C1 [S-70]
- Verlust durch Auswaschen [1]: 4%

Compound: COCCC1=Cc2nc1ccc1[nH]c(cc1CCOC)c1nc(c(O)cc3[nH]c2cc3CCOC)C(CCOC)=C1 [S-58a, 9-Hydroxy-2,7,12,17-tetra-(beta-methoxyethyl)porphycen]
- Verlust durch Auswaschen [1]: 4%
- S. aureus Log10 Reduktion Probe ([3]; Rezeptur 4 nach Beispiel 5 on Melamin, 4 h, 300 µW/cm2): 1,4±0,1
- S. aureus Log10 Reduktion Dunkelkontrolle ([3]; Rezeptur 4 nach Beispiel 5 on Melamin, 4 h, dark): 0,0±0,1

Compound: CC(=O)OCCC1=Cc2nc1ccc1[nH]c(cc1CCOC(C)=O)c1nc3c(cc4[nH]c2cc4CCOC(C)=O)OCCC3=C1 [S-60b]
- Verlust durch Auswaschen [1]: 2%

Compound: CCCCCCCCCCOc1ccc(/C=C/C(=O)CC(=O)/C=C/c2ccc(OCCCCCCCCCC)cc2)cc1 [S-52a]
- Verlust durch Auswaschen [1]: 13%

Compound: COCCC1=Cc2nc1ccc1[nH]c(cc1CCOC)c1nc(c(OCCCC(=O)O)cc3[nH]c2cc3CCOC)C(CCOC)=C1 [S-66a]
- Verlust durch Auswaschen [1]: 3%

Compound: NCCCOC1=CC(=O)c2cccc3cccc1c23 [S-08]
- Verlust durch Auswaschen [1]: 13%

Compound: 2,7,12-Tris(pyridinio-p-tolyl)-17-(p-(methoxymethyl)phenyl) porphycen bromid [reference compound]
- Verlust durch Auswaschen [1]: > 70%

Compound: COCCC1=Cc2nc1ccc1[nH]c(cc1CCOC)c1nc(c(OC(=O)CCC(N)C(=O)O)cc3[nH]c2cc3CCOC)C(CCOC)=C1 (centres unmarked) [S-74]
- Verlust durch Auswaschen [1]: 11%

Compound: CC(=O)OCCC1=Cc2nc1ccc1[nH]c(cc1CCOC(C)=O)c1nc(c(O)cc3[nH]c2cc3CCOC(C)=O)C(CCOC(C)=O)=C1 [S-60a]
- Verlust durch Auswaschen [1]: 8%

Compound: OCCC1=Cc2nc1ccc1[nH]c(cc1CCO)c1nc(c(O)cc3[nH]c2cc3CCO)C(CCO)=C1 [Verbindungen S-59a]
- Verlust durch Auswaschen [1]: 8%
